Results as given in ChEMBL document CHEMBL2074437, “Expression and transport properties of the human ileal and renal sodium-dependent bile acid transporter” (Am J Physiol, 1998).

T1: Ileal sodium/bile acid cotransporter (Homo sapiens, UniProt Q12908)
T1 sequence (Q12908 whole entry): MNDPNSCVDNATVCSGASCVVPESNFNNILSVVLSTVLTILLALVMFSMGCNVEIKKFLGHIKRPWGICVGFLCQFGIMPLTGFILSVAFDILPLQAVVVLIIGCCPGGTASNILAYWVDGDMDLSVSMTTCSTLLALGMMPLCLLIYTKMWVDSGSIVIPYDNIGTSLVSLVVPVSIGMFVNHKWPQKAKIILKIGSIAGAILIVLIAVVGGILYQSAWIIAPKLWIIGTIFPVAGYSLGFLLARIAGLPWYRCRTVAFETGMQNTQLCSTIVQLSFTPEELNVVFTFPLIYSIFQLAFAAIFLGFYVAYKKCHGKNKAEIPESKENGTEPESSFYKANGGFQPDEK

B1: Ileal sodium/bile acid cotransporter (Homo sapiens) (protein)
chain: MNDPNSCVDNATVCSGASCVVPESNFNNILSVVLSTVLTILLALVMFSMGCNVEIKKFLGHIKRPWGICVGFLCQFGIMPLTGFILSVAFDILPLQAVVVLIIGCCPGGTASNILAYWVDGDMDLSVSMTTCSTLLALGMMPLCLLIYTKMWVDSGSIVIPYDNIGTSLVSLVVPVSIGMFVNHKWPQKAKIILKIGSIAGAILIVLIAVVGGILYQSAWIIAPKLWIIGTIFPVAGYSLGFLLARIAGLPWYRCRTVAFETGMQNTQLCSTIVQLSFTPEELNVVFTFPLIYSIFQLAFAAIFLGFYVAYKKCHGKNKAEIPESKENGTEPESSFYKANGGFQPDEK

Tests used:
Assay type in all cases: functional, cell-based
[1] = target: T1, Ileal sodium/bile acid cotransporter; assay: TP_TRANSPORTER: inhibition of Taurocholate uptake in ASBT-expressing COS cells
[2] = substrate: C[C@H](CCC(=O)NCC(=O)O)[C@H]1CC[C@H]2[C@@H]3[C@@H](O)C[C@@H]4C[C@H](O)CC[C@]4(C)[C@H]3CC[C@]12C; assay: (§1) TP_TRANSPORTER: uptake in ASBT-expressing COS cells
[3] = substrate: C[C@H](CCC(=O)NCC(=O)O)[C@H]1CC[C@H]2[C@@H]3CC[C@@H]4C[C@H](O)CC[C@]4(C)[C@H]3C[C@H](O)[C@]12C; assay: as §1
[4] = substrate: C[C@H](CCC(=O)NCC(=O)O)[C@H]1CC[C@H]2[C@@H]3[C@H](O)C[C@@H]4C[C@H](O)CC[C@]4(C)[C@H]3CC[C@]12C; assay: as §1

Row | Molecule | Ki [1] | further results
1 | C[C@H](CCC(=O)O)[C@H]1CC[C@H]2[C@@H]3[C@H](O)C[C@@H]4C[C@H](O)CC[C@]4(C)[C@H]3CC[C@]12C [CHENODIOL] | 3.3 µM | –
2 | C[C@H](CCC(=O)O)[C@H]1CC[C@H]2[C@@H]3CC[C@@H]4C[C@H](O)CC[C@]4(C)[C@H]3C[C@H](O)[C@]12C [DEOXYCHOLIC ACID] | 6.3 µM | Ki ([1]; cos): 6.3 µM
3 | O=C1OC(c2ccc(O)c(S(=O)(=O)O)c2)(c2ccc(O)c(S(=O)(=O)O)c2)c2c(Br)c(Br)c(Br)c(Br)c21 [SULFOBROMOPHTHALEIN SODIUM] | 144 µM | –
4 | C[C@H](CCC(=O)NCCS(=O)(=O)O)[C@H]1CC[C@H]2[C@@H]3[C@H](O)C[C@@H]4C[C@H](O)CC[C@]4(C)[C@H]3CC[C@]12C [TAUROCHENODEOXYCHOLATE] | 6.1 µM | –
5 | C[C@H](CCC(=O)NCCS(=O)(=O)O)[C@H]1CC[C@H]2[C@@H]3CC[C@@H]4C[C@H](O)CC[C@]4(C)[C@H]3C[C@H](O)[C@]12C [TAURODEOXYCHOLIC ACID] | 17.2 µM | –
6 | C[C@H](CCC(=O)NCCS(=O)(=O)O)[C@H]1CC[C@H]2[C@@H]3[C@@H](O)C[C@@H]4C[C@H](O)CC[C@]4(C)[C@H]3CC[C@]12C [TAURURSODIOL] | 28 µM | –
7 | C[C@H](CCC(=O)O)[C@H]1CC[C@H]2[C@@H]3[C@@H](O)C[C@@H]4C[C@H](O)CC[C@]4(C)[C@H]3CC[C@]12C [URSODIOL] | 75 µM | –
8 | B1 | – | Km [2]: 4.1 µM; Km [3]: 2 µM; Km [4]: 5.7 µM
